{"source": "patent US20040152786A1", "about": "“Preventive or remedy for diseases caused by cerebrovascular disturbances” (priority 2003, published 2004)", "key": {"[1]": {"tested_on": "ischemic re-perfusion rat model", "experiment": "Infarct lesion area and volume, ischemic re-perfusion rat model", "format": "in vivo", "procedure": "An influence of the cyclohexenone long-chain fatty alcoholic compound, which had been prepared in Preparation Example 2, on each of the area and volume of the infarct lesion was studied using an ischemic re-perfusion rat model.\nThe 8-week-old rats were occluded, at the middle brain artery thereof, with a nylon stopper for 2 hours, followed by intraperitoneal administration of the compound of Preparation Example 2 in amounts of 0.5 mg/kg, 2 mg/kg and 8 mg/kg, respectively, rightly before re-perfusion. After removal of the nylon stopper, re-perfusion was conducted. Twenty four hours after occlusion, the brain was enucleated and each of the area and volume of the infarct lesion was measured in a similar manner to Test 2."}, "[2]": {"tested_on": "middle-cerebral-artery permanently-occluded rat model", "experiment": "Infarct lesion area and volume, middle-cerebral-artery permanently-occluded rat model", "format": "in vivo", "source_text": "An influence of the cyclohexenone long-chain fatty alcoholic compound, which had been obtained in Preparation Example 2, on the area and volume of the infarct lesion caused by ischemia was studied using a middle-cerebral-artery permanently-occluded rat model.\nThe middle cerebral artery of an 8-week-old rat was electrically coagulated and occluded by a bipolar coagulator (MICRO-3D [Mizuho Co., Ltd.]). The compound obtained in Preparation Example 2 was intraperitoneally administered in an amount of 0.3 mg/kg, 2 mg/kg and 8 mg/kg rightly after the occlusion of the middle cerebral artery, respectively. After 24 hours, the brain was enucleated and cut into slices of 2 mm thick. Each slice was stained with 1% 2,3,5-triphenyltetrazolium chloride (TTC), followed by the taking of photos. The photograph was analyzed and the area of the infarct lesion was measured. The volume of the infarct lesion was calculated from the below-described equation. […]\na: infarct area (B+4) on the cross-section 4 mm forward from the forehead, b: infarct area (B+2) on the cross-section 2 mm forward from the forehead, c: infarct area (B) on the cross-section of the forehead, d: infarct area (B-2) on the cross-section 2 mm backward from the forehead, and e: infarct area (B-4) on the-cross-section 4 mm backward from the forehead."}, "[3]": {"conditions": "2 hours occlusion, intraperitoneal 0.5, 2 and 8 mg/kg rightly before re-perfusion, 24 hours after occlusion"}, "[4]": {"conditions": "intraperitoneal dose of 2 mg/kg"}}, "data": [{"smiles": "CC1=C(CCCCCCCCCCCCCCCO)C(C)(C)CCC1=O", "note": "[Preparation Example 2, 3-(15-hydroxypentadecyl)-2,4,4-trimethyl-2-cyclohexen-1-one]", "values": [{"measurement": "area of the infarct lesion", "setting": "[1]; [3]", "value": "reduction"}, {"measurement": "volume of the infarct lesion", "setting": "[1]; [3]", "value": "reduction"}, {"measurement": "brain protective action", "setting": "[1]; [4]", "value": "marked brain protective action"}, {"measurement": "volume of the infarct lesion", "setting": "[2]; intraperitoneal 0.3, 2 and 8 mg/kg rightly after occlusion, after 24 hours, V=a+2(b+c+d)+e", "value": "reduction"}, {"measurement": "area of the infarct lesion", "setting": "[2]; intraperitoneal 0.3, 2 and 8 mg/kg rightly after occlusion, brain taken after 24 hours, TTC staining", "value": "reduction"}, {"measurement": "brain protective action", "setting": "[2]; [4]", "value": "marked brain protective action"}]}]}
